In patent publication US20200384072A1, “THERAPY OF IONIZING RADIATION-INDUCED DISORDERS” (SCK-CEN, priority 2019, published 2020):

Key:
[1] = system: primary brain microvascular endothelial cells (pBMECs); assay: γ-H2AX counts after local 3×3 mm X-ray irradiation (irradiated and bystander zones), pBMECs; type: cell-based, mouse; conditions: 1 Gy, 3 h post-irradiation
Method: Cortices, from 10-12 week old mice, were isolated by removing cerebellum, striatum, optic nerves, brain white matter, outer vessels and meninges. After homogenization with a Dounce homogenizer in WBB (Washing Buffer B: HMS, 10 mM Hepes, 0.35 g/L NaHCO3, 0.1% BSA), the homogenate was mixed with 30% dextran in WBB and centrifuged at 3000×g for 25 min at 4° C. The pellet containing the vascular component was then resuspended in WBB and filtered through a 60 μm NY60 Nylon Net Filter (Millipore, Darmstadt, Germany). Following centrifugation at 1000×g for 7 min at room temperature, the pellet was digested in collagenase/dispase supplement with DNase I (Roche Diagnostics, Vilvoorde, Belgium) and TLCK (Tosyl, Lysin chloromethyl ketone, sigma-aldrich) for 33 min at 37° C. in a shaking water bath. The digested capillary suspension was then seeded after multiple washing steps on wells coated with matrigel or glass coated with Corning Cell-Tak (VWR, Leuven, Belgium). For the isolation of intact capillaries the protocol was aborted just before the digestion step.
(§1) A defined area of the cell culture dishes were exposed to X-rays (1Gy or 20 Gy) by using a small animal radiation research platform (SARRP, Xstrahl, 220 kV, 13 mA), making use of a 3×3 mm collimator. Whole dish irradiation was done using a 10×10 cm broad-beam collimator, while localized Irradiation was performed with a 3×3 mm collimator. A Gafchromic RTQA2 film, with a sensitivity of 0.02 Gy, was placed underneath the cell dishes in order to delineate the irradiated zone.
(§2) Cells were fixed for 25 min with 4% formaldehyde (VWR) and blocked for 30 min with blocking buffer (5% normal goat serum, 1% bovine serum albumin (BSA), 0.2% Triton X-100 in PBS D+). Overnight incubation with primary antibody (1/500 anti-γ-H2AX in dilution buffer, 1/10 blocking buffer in PBS D+) was followed by a 1 h incubation with 1/400 XX-biotin-goat-anti-mouse antibody in dilution buffer, followed by a 1 h incubation with 1/400 streptavidin-alexa488 in PBS D+. Nuclei were stained with 1 μg/mL DAPI in PBS D+ for 10 min and cells were kept in PBS D+ supplemented with NaN3 at 4° C. All steps except the overnight incubation which was carried out at 4° C., were carried out at room temperature and cell cultures were rinsed thoroughly with PBS D+ between all incubation steps. Imaging was performed with an automated BD Pathway 435 imaging system (10× objective, 10×10 montage resulting in an overall image size of 8.5×6.5 mm). We then quantified the number of γ-H2AX-foci positive nuclei in the directly irradiated and bystander areas and expressed the count as a percentage relative to the number of nuclei and subtracted the percentage of background γ-H2AX signal in non-irradiated paired control cultures for each experiment. For counting γ-H2AX foci, images were thresholded to remove background pixel noise below the foci level. Where applicable, results were normalized against vehicle (bar charts with a 100% vehicle bar without statistical variability or a horizontal line).

[2] = system: TIME cells; assay: Scrape loading and dye transfer (SLDT), gap junctional coupling after irradiation, TIME cells; type: cell-based, human; conditions: Carbenoxolone 50 μM, single 0.1 or 5 Gy, 6 h and 72 h p.i.
Method: (§3) The scrape loading and dye transfer assay (SLDT) was used to assess gap junctional function after IR exposure. TICAE and TIME cells were seeded in a 24-well plate at a density of 1×10^5 cells/well in four to six biological replicates. Three days later, cells reached 100% confluence and the medium was refreshed before irradiation with 1 ml/well for single irradiation experiment and 1.5 ml for fractionated irradiation experiment. At different time points after irradiation (6 and 72 h post single irradiation, or 72 h post fractionated irradiation) the cells were washed 3 times with a scrape loading and dye transfer (SLDT) buffer (137 mM NaCl, 5.36 mM KCl, 0.81 mM MgCl2, 5.55 mM […], 25 mM HEPES, pH 7.4). Then, the cells were incubated with a SLDT solution composed of SLDT buffer and 400 μM 6-carboxyfluorescein (6-CF, 0.376 kDa) (Sigma-Aldrich Co. LCC, Diegem, Belgium) for one minute. A vertical scratch was made in the middle of each well, using a 20G needle (Becton Dickinson, Erembodegem, Belgium). After another one minute incubation, the cells were washed 6 times with HMS supplemented with 25 mM HEPES (Sigma-Aldrich Co. LCC, Diegem, Belgium). […] The relative area of 6-CF transfer was calculated using FIJI software. By analyzing the area of the dye diffusion from the first line of cells to adjacent cells, the gap junctional coupling was determined.

[3] = system: RBE4 cells; assay: Irradiation-induced ATP release, RBE4 cells; type: cell-based, rat; conditions: broad-beam 1 Gy, 5 min post-irradiation, BAPTA-AM 10 μM, NALC 1 mM, c-PTIO 100 μM
Method: ATP was measured using a luciferin-luciferase assay kit (Sigma-Aldrich) in combination with a luminometer plate reader (Victor3 1420 multi label counter; Perkin Elmer, Zaventem, Belgium).
Extracellular ATP measurements were initially carried out at different time-points post-irradiation, the effect of blockers on ATP release was tested at the 5 min post-irradiation time-point (time of maximum ATP release).

[4] = system: TICAE cells; assay: Scrape loading and dye transfer (SLDT), gap junctional coupling after irradiation, TICAE cells; type: cell-based, human; conditions: Carbenoxolone 50 μM, single 0.1 or 5 Gy, 6 h and 72 h p.i.
Method: as §3

[5] = system: RBE4 cells; assay: γ-H2AX counts after local 3×3 mm X-ray irradiation (irradiated and bystander zones), RBE4 cells; type: cell-based, rat; conditions: 1 Gy, 3 h post-irradiation, Cbx 50 μM, Gap26 161 μM, TAT-Gap19 200 μM, Xestospongin C 5 μM
Method: as §1, §2

[6] = system: RBE4 cells; assay: Cytosolic Ca2+ imaging after medium transfer from irradiated to recipient RBE4 cells; type: cell-based, rat
Method: Cells were seeded on glass coverslips (18 mm 0) coated with 3.5 μg/cm^2 Corning cell-tak (VWR, Leuven, Belgium) and ester loaded for 45 min with 10 μM Fluo-3-AM in HBSS-HEPES supplemented with 1 mM of probenecid and 0.01% of pluronic F127 at room temperature followed by de-esterification over 15 min. Imaging was performed using an inverted fluorescence microscope equipped with a ×40 oil immersion objective and an EM-CCD camera (QuantEM™ 512SC CCD camera, Photometrics, Tucson, Ariz.). For direct Ca^2+ measurements the loaded cells were irradiated and transferred to the microscopy stage. For medium transfer, the loaded cells were superfused for 1 min with HBSS-Hepes (1 mM), followed by 4 min with HBSS-Hepes conditioned by irradiated cultures. Fluorescence intensity changes in the cells were analyzed with custom-developed FluoFrames software (L. Leybaert, Ghent, Belgium). Ca^2+ changes were quantified as the area under the curve (AUC) of the Ca^2+ traces.

CC1(C)[C@@H](OC(=O)CCC(=O)O)CC[C@]2(C)[C@H]3C(=O)C=C4[C@@H]5C[C@@](C)(C(=O)O)CC[C@]5(C)CC[C@@]4(C)[C@]3(C)CC[C@@H]12 [Carbenoxolone, carbenoxolone]
γ-H2AX counts in the bystander zone (normalized to vehicle) [1]: significant decrease | γ-H2AX counts in the irradiated area (normalized to vehicle) [1]: significant decrease | 6-CF dye spread (gap junctional dye coupling) [2]: inhibited the dye spread in all cases | irradiation-induced ATP release [3]: inhibited | 6-CF dye spread (gap junctional dye coupling) [4]: inhibited the dye spread in all cases | γ-H2AX counts in the bystander zone (normalized to vehicle) [5]: significantly inhibited | γ-H2AX counts in the irradiated zone (normalized to vehicle) [5]: not statistically significant | AUC of Ca2+ transients in recipient bystander cells ([6]; inhibitor added to the irradiated culture 30 min before irradiation, NALC 1 mM): reduced the area under the curve (AUC) | [Ca2+]i responses in recipient cells ([6]; inhibitor added to the recipient cells, PPADS 50 μM): inhibited the [Ca^2]i responses
